The source made the active and inactive calls. The calls are words filed in the database; no cut-off is given here.
What was measured:
[1] = test system: A-375; assay: Cytotoxicity against human A375 cells assessed as reduction in cell viability incubated for 48 hrs by MTT assay; type: functional, cell-based; settings: A-375, 48 h
[2] = test system: NHDF; assay: Cytotoxicity against human HDF cells assessed as reduction in cell viability incubated for 48 hrs by MTT assay; type: cell-based
[3] = test system: LNCaP; assay: Cytotoxicity against human LNCAP cells assessed as reduction in cell viability incubated for 48 hrs by MTT assay; type: functional, cell-based
[4] = test system: PC-3; assay: Cytotoxicity against human PC3 cells assessed as reduction in cell viability incubated for 48 hrs by MTT assay; type: functional, cell-based; settings: PC-3, 48 h
[5] = test system: PC-3; assay: Induction of cell death in human PC3 cells assessed as chromatin fragmentation by DAPI staining based inverted fluorescence microscopy; type: functional
[6] = test system: LNCaP; assay: Inhibition of cell migration at human LNCAP cells incubated for 24 hrs by phase contrast microscopy based wound healing assay; type: functional
[7] = test system: LNCaP; assay: Induction of apoptosis in human LNCAP cells assessed as upregulation of Bax mRNA expression by qRT-PCR analysis; type: functional, cell-based
[8] = test system: A-375; assay: Induction of cell death in human A375 cells assessed as morphological changes by DAPI staining based inverted fluorescence microscopy; type: functional
[9] = test system: LNCaP; assay: Inhibition of epithelial-mesenchymal transition in human LNCAP cells assessed as decrease in vimentin mRNA expression level by qRT-PCR analysis; type: functional, cell-based
[10] = test system: LNCaP; assay: Induction of apoptosis in human LNCAP cells assessed as downregulation of Bcl2 mRNA expression by qRT-PCR analysis; type: functional, cell-based
[11] = test system: LNCaP; assay: Induction of cell death in human LNCAP cells assessed as chromatin fragmentation by DAPI staining based inverted fluorescence microscopy; type: functional
[12] = test system: LNCaP; assay: Inhibition of epithelial-mesenchymal transition in human LNCAP cells assessed as increase in E-cadherin mRNA expression by qRT-PCR analysis; type: functional, cell-based
[13] = test system: LNCaP; assay: Induction of cell death in human LNCAP cells assessed as morphological changes by DAPI staining based inverted fluorescence microscopy; type: functional
[14] = test system: A-375; assay: Induction of cell death in human A375 cells assessed as chromatin fragmentation by DAPI staining based inverted fluorescence microscopy; type: functional
[15] = test system: PC-3; assay: Induction of cell death in human PC3 cells assessed as morphological changes by DAPI staining based inverted fluorescence microscopy; type: functional

SMILES	IC50 [1]	IC50 [2]	IC50 [3]	IC50 [4]	other results
CNC1=C([N+](=O)[O-])C(c2ccc(Cl)cc2)Nc2ncnn21 (configuration not stated)	> 100 µM	> 100 µM	> 100 µM	> 100 µM	
CNc1c([N+](=O)[O-])c(-c2ccncc2)nc2ncnn12	> 100 µM	> 100 µM	31.7 µM	> 100 µM	
CNC1=C([N+](=O)[O-])C(c2ccc([N+](=O)[O-])cc2)Nc2ncnn21 (configuration not stated)	31.7 µM	> 100 µM	28.6 µM	65 µM	Activity [5]: Active; inhibition [6]: Active; Activity [7]: Active; Activity [8]: Active; inhibition [9]: Active; Activity [10]: Active; Activity [11]: Active; inhibition [12]: Active; Activity [13]: Active; Activity [14]: Active; Activity [15]: Active
COc1cc([C@@H]2c3cc4c(cc3[C@@H](O[C@@H]3O[C@@H]5CO[C@@H](C)O[C@H]5[C@H](O)[C@H]3O)[C@H]3COC(=O)[C@H]23)OCO4)cc(OC)c1O [ETOPOSIDE]	24.5 µM	> 100 µM	31.2 µM	30 µM	
CNC1=C([N+](=O)[O-])C(c2ccccc2Cl)Nc2ncnn21 (configuration not stated)	> 100 µM	> 100 µM	> 100 µM	63.3 µM	
CNC1=C([N+](=O)[O-])C(c2ccc(Br)cc2)Nc2ncnn21 (configuration not stated)	> 100 µM	> 100 µM	> 100 µM	> 100 µM	
CNC1=C([N+](=O)[O-])C(c2ccccc2)Nc2ncnn21 (configuration not stated)	> 100 µM	> 100 µM	> 100 µM	45 µM	
CNC1=C([N+](=O)[O-])C(c2ccc(C(F)(F)F)cc2)Nc2ncnn21 (configuration not stated)	63.4 µM	> 100 µM	> 100 µM	> 100 µM	
CNC1=C([N+](=O)[O-])C(c2cccc(F)c2)Nc2ncnn21 (configuration not stated)	61.3 µM	> 100 µM	> 100 µM	55.6 µM	

From ChEMBL document CHEMBL4627341, “Synthesis and evaluation of anti-tumor activity of novel triazolo[1,5-a] pyrimidine on cancer cells by induction of cellular apoptosis and inhibition of epithelial-to-mesenchymal transition process” (Bioorg Med Chem Lett, 2020)
